Measured values: US9963463B2, “Urea-substituted indanes as P38 map kinase inhibitors” (TORRENT PHARMACEUTICALS LIMITED, priority 2014, dated 2018)

Assays:
[1] = target: T1, purified recombinant human p38 alpha MAPK (Homo sapiens, UniProt Q16539); assay: Inhibition of p38 alpha MAPK activity, TR-FRET kinase assay; format: biochemical; settings: read-out: P38α Inhibition; for inhibition at 1 µM: Concentration 1 μM
T1 construct: purchased Millipore, USA
Procedure, shortened: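 Recombinant human p38α preincubated 15 min at RT with compound (0.5–1.0% DMSO), then 30 nM biotinylated GST-ATF2 and 100 μM ATP added for 60 min at RT. Stopped with EDTA; Eu-anti-phospho-ATF2 and APC-streptavidin detection, 60 min. % inhibition from 665/615 nm TR-FRET ratio.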

[2] = tested on: cigarette smoke induced Neutrophil accumulation in BAL Fluid; assay: Acute mouse model of airway inflammation (tobacco smoke), BAL neutrophils; format: in vivo; settings: mice, aerosol exposure 25 minutes; for Neutrophil (*10^3 cells/animal): BAL fluid, Mean ± SEM; for % Inhibition: neutrophil vs vehicle group
Source text: In vivo efficacy evaluation of compounds in animal model of airway inflammation: The tobacco smoke induced airway inflammation model is used for in-vivo efficacy of compound. Many investigators have used acute tobacco smoke (TS) exposure in rodents as models of airway inflammation for quick screening of anti-inflammatory therapies (J Pharmacol Exp Ther. 2008; 324(3):921-9; J Pharmacol Exp Ther. 2010; 332(3):764-75; Journal of Inflammation 2013, 10(Suppl 1):31 and Eur Respir J Suppl 2006; 663s:3850).
A: Efficacy Studies in Acute Mouse Model of Airway Inflammation
Mice were exposed to tobacco smoke (TS) in an acrylic chamber. Animals were exposed to TS from 8, 12, 16 cigarettes on day 1, day 2, day 3 respectively. From day 4 onwards till day 11, animals were exposed to TS from 20 cigarettes per day. Like human COPD associated inflammation, acute exposure of mice to TS induced significant inflammatory cell, predominantly neutrophil recruitment to lungs as compared to air exposed control mice (BALF neutrophil levels, nil in air control group vs 178±29.1*10^3 cells/animal in smoke exposed vehicle group).
Lung delivery of test compound was achieved by whole body aerosol exposure for 25 minutes in a chamber. Mice were divided in different dose groups and exposed in a chamber for 25 minutes with vehicle or Compound 12 (0.3 mg/ml) or Compound 12 (3 mg/ml). A total quantity of 3.5 ml of either vehicle or test compound formulation was nebulized in a chambers to respective groups over 25 mins period. Test compounds were administered 2 hr prior to TS exposure from day 6 to day 11. Bronchoalveolar lavage (BAL) was performed 24 hr post last TS exposure.
Trachea of animal was cannulated using catheter. Phosphate Buffer Saline (PBS) was used as lavage fluid. A volume of 0.5 ml was gently instilled and withdrawn and collected in microcentrifuge tube placed on ice. This procedure was repeated further 2 times.
Lavage fluid was separated from cells by centrifugation and supernatant separated. The cell pallet was resuspended in known volume of PBS. Cells in aliquot were stained using Turk solution and total cell numbers were calculated by counting Turk stained aliquot under microscope using haemocytometer.
The residual cell suspension was resuspended and slides prepared using cyto centrifuge technique (Cytospin 4, Thermo Shandon). The slides were then fixed with methanol, air dried and stained with May Grunwald Giemsa stain. Up to 300 cells were counted and differentiated using standard morphometric techniques under light microscopy.
All results are presented at individual data for each animal and mean value calculated for each group. Percentage inhibition for the neutrophil was calculated for Compound 12 treatment group against vehicle group. Results are summarized herein below: […]

T1 sequence (Q16539 whole entry): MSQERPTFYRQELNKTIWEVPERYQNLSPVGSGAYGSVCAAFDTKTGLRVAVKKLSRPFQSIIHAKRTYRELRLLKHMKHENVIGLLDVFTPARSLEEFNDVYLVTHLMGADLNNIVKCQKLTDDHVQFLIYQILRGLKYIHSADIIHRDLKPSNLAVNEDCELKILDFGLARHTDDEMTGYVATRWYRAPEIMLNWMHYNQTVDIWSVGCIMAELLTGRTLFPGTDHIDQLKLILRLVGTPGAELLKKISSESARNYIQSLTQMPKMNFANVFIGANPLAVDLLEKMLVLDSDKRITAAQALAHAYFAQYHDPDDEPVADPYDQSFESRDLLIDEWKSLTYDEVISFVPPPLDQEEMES

SMILES	inhibition at 1 µM [1]	also measured
Cc1ccc(-n2nc(C(C)(C)C)cc2NC(=O)Nc2ccc(OCCN3CCN(CC4CC4)C(=O)C3)c3c2CCC3)cc1 [Compound 12, 1-[3-tert-butyl-1-(4-methylphenyl)-1H-pyrazol-5-yl]-3-(7-{2-[4-(cyclopropylmethyl)-3-oxopiperazin-1-yl]ethoxy}-2,3-dihydro-1H-inden-4-yl)urea]	80 to 100%	Neutrophil (*10^3 cells/animal) ([2]; formulation strength 0.3 mg/ml): 107 ± 18.5 *10^3 cells/animal; Neutrophil (*10^3 cells/animal) ([2]; formulation strength 3 mg/ml): 69.6 ± 11.1 *10^3 cells/animal; % Inhibition ([2]; formulation strength 0.3 mg/ml): 40%; % Inhibition ([2]; formulation strength 3 mg/ml): 61%
CCCSc1ccccc1-c1nnc2n1CCN(CCOc1ccc(NC(=O)Nc3cc(C(C)(C)C)nn3-c3ccc(O)c(Cl)c3)c3c1CCC3)C2 [Compound 35, 1-[3-tert-butyl-1-(3-chloro-4-hydroxyphenyl)-1H-pyrazol-5-yl]-3-[7-(2-{3-[2-(propylsulfanyl)phenyl]-5,6-dihydro[1,2,4]triazolo[4,3-a]pyrazin-7(8H)-yl}ethoxy)-2,3-dihydro-1H-inden-4-yl]urea]	80 to 100%	–
CCOC(=O)c1c(NC(=O)C2CC2)sc2c1CCN(C(=O)COc1ccc(NC(=O)Nc3cc(C(C)(C)C)nn3-c3ccc(C)cc3)c3c1CCC3)C2 [Compound 54, ethyl 6-({[7-({[3-tert-butyl-1-(4-methylphenyl)-1H-pyrazol-5-yl]carbamoyl}amino)-2,3-dihydro-1H-inden-4-yl]oxy}acetyl)-2-[(cyclopropylcarbonyl)amino]-4,5,6,7-tetrahydrothieno[2,3-c]pyridine-3-carboxylate]	< 20%	–
COc1ccc(-n2nc(C(C)(C)C)cc2NC(=O)Nc2ccc(OCC(=O)N3CCn4c(nnc4C(F)(F)F)C3)c3c2CCC3)cc1Cl [Compound 53, 1-[3-tert-butyl-1-(3-chloro-4-methoxyphenyl)-1H-pyrazol-5-yl]-3-(7-{2-oxo-2-[3-(trifluoromethyl)-5,6-dihydro[1,2,4]triazolo[4,3-a]pyrazin-7(8H)-yl]ethoxy}-2,3-dihydro-1H-inden-4-yl)urea]	40 to 60%	–
COc1c(NC(=O)Nc2ccc(OCCN3CCn4c(nnc4-c4cccc(O)c4)C3)c3c2CCC3)cc(C(C)(C)C)cc1NS(C)(=O)=O [Compound 46, N-(5-tert-butyl-3-{[(7-{2-[3-(3-hydroxyphenyl)-5,6-dihydro[1,2,4]triazolo[4,3-a]pyrazin-7(8H)-yl]ethoxy}-2,3-dihydro-1H-inden-4-yl)carbamoyl]amino}-2-methoxyphenyl)methanesulfonamide]	–	inhibition at 0.1 µM ([1]; Concentration 100 nM): 60 to 80%
CCCCOc1ccccc1-c1nnc2n1CCN(CCOc1ccc(NC(=O)Nc3cc(C(C)(C)C)nn3-c3ccc(C)cc3)c3c1CCC3)C2 [Compound 32, 1-(7-{2-[3-(2-butoxyphenyl)-5,6-dihydro[1,2,4]triazolo[4,3-a]pyrazin-7(8H)-yl]ethoxy}-2,3-dihydro-1H-inden-4-yl)-3-[3-tert-butyl-1-(4-methylphenyl)-1H-pyrazol-5-yl]urea]	80 to 100%	–
CCS(=O)(=O)Nc1cc(C(C)(C)C)cc(NC(=O)Nc2ccc(OCCN3CCn4c(nnc4-c4cc(Cl)ccc4O)C3)c3c2CCC3)c1OC [Compound 51, N-(5-tert-butyl-3-{[(7-{2-[3-(5-chloro-2-hydroxyphenyl)-5,6-dihydro[1,2,4]triazolo[4,3-a]pyrazin-7(8H)-yl]ethoxy}-2,3-dihydro-1H-inden-4-yl)carbamoyl]amino}-2-methoxyphenyl)ethanesulfonamide]	80 to 100%	–

Now from value to compound, other results behind:

inhibition at 1 µM [1]	SMILES	also measured
80 to 100%	Cc1ccc(-n2nc(C(C)(C)C)cc2NC(=O)Nc2ccc(OCCN3CCN(CCO)C(=O)C3)c3c2CCC3)cc1 [Compound 6, 1-[3-tert-butyl-1-(4-methylphenyl)-1H-pyrazol-5-yl]-3-(7-{2-[4-(2-hydroxyethyl)-3-oxopiperazin-1-yl]ethoxy}-2,3-dihydro-1H-inden-4-yl)urea]	–
80 to 100%	CSc1ccccc1-c1nnc2n1CCN(C(=O)COc1ccc(NC(=O)Nc3cc(C(C)(C)C)nn3-c3ccc(C)cc3)c3c1CCC3)C2 [Compound 10, 1-[3-tert-butyl-1-(4-methylphenyl)-1H-pyrazol-5-yl]-3-[7-(2-{3-[2-(methylsulfanyl)phenyl]-5,6-dihydro[1,2,4]triazolo[4,3-a]pyrazin-7(8H)-yl}-2-oxoethoxy)-2,3-dihydro-1H-inden-4-yl]urea]	–
80 to 100%	Cc1ccc(-n2nc(C(C)(C)C)cc2NC(=O)Nc2ccc(OCCN3CCn4c(nnc4-c4ccccc4OCCN4CCOCC4)C3)c3c2CCC3)cc1 [Compound 20, 1-[3-tert-butyl-1-(4-methylphenyl)-1H-pyrazol-5-yl]-3-(7-{2-[3-{2-[2-(morpholin-4-yl)ethoxy]phenyl}-5,6-dihydro[1,2,4]triazolo[4,3-a]pyrazin-7(8H)-yl]ethoxy}-2,3-dihydro-1H-inden-4-yl)urea]	–
60 to 80%	CC(C)(C)c1cc(NC(=O)Nc2ccc(OCC(=O)N3CCn4c(nnc4C(F)(F)F)C3)c3c2CCC3)n(-c2ccccc2)n1 [Compound 4, 1-(3-tert-butyl-1-phenyl-1H-pyrazol-5-yl)-3-(7-{2-oxo-2-[3-(trifluoromethyl)-5,6-dihydro[1,2,4]triazolo[4,3-a]pyrazin-7(8H)-yl]ethoxy}-2,3-dihydro-1H-inden-4-yl)urea]	–
60 to 80%	COc1c(NC(=O)Nc2ccc(OCCN3CCn4c(nnc4-c4cccc5ccccc45)C3)c3c2CCC3)cc(C(C)(C)C)cc1NS(C)(=O)=O [Compound 74, N-(5-tert-butyl-2-methoxy-3-{[(7-{2-[3-(naphthalen-1-yl)-5,6-dihydro[1,2,4]triazolo[4,3-a]pyrazin-7(8H)-yl]ethoxy}-2,3-dihydro-1H-inden-4-yl)carbamoyl]amino}phenyl)methanesulfonamide]	–
